Columns and labels:
[1] = biological target: T1, human sphingosine-1-phosphate receptor 1 (S1P1) (Homo sapiens (Human), UniProt P21453); test: Inhibition of cAMP production (HTRF cAMP HiRange), S1P1 CHO-K1 cells; type: cell-based; details: for Emax: CHO-K1, read-out: hS1P1 cAMP SPAN; for hS1P1 cAMP pEC50: inhibition of cAMP production, S1P1 CHO-K1 cells
Outline: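 CHO-K1 cells stably co-expressing human S1P1 (C-terminal Prolink tag) and EA-β-arrestin2 were grown in AssayComplete Media 6 at 37° C. and 5% CO2, plated, and incubated overnight. Agonist-driven inhibition of intracellular cAMP was read by TR-FRET with the HTRF cAMP HiRange kit on a PheraStar reader. Potency is pEC50, and efficacy (SPAN) is normalized to fingolimod.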
Target sequence in this assay (P21453 whole entry, looked up): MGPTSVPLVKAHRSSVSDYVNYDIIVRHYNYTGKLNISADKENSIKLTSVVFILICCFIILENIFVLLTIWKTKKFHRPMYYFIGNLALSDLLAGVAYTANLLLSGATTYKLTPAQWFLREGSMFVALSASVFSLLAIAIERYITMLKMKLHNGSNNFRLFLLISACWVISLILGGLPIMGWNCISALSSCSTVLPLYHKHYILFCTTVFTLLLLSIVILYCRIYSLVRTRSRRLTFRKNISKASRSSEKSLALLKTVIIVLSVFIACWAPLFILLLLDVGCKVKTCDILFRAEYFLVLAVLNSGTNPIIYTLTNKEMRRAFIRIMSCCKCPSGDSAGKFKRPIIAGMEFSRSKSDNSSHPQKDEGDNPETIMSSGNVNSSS

[2] = biological target: T1, human sphingosine-1-phosphate receptor 1 (S1P1); test: β-Arrestin2 recruitment assay (PathHunter), S1P1 CHO-K1 cells; type: cell-based; details: for Emax: CHO-K1, read-out: hS1P1 B-arrestin2 SPAN; for hS1P1 B-arrestin2 pEC50: β-arrestin2 recruitment, S1P1 CHO-K1 cells
Outline: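 Enzyme-fragment complementation read-out: agonist-driven β-arrestin2 binding to ProLink-tagged human S1P1 in stable CHO-K1 cells restores β-galactosidase, measured 1 h at room temperature after a 60 min 37° C. compound incubation. Potency as pEC50, efficacy relative to fingolimod (SPAN).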
Target sequence in this assay (P21453 whole entry, looked up): as above
Target sequence in this assay (P32121 whole entry partner, looked up): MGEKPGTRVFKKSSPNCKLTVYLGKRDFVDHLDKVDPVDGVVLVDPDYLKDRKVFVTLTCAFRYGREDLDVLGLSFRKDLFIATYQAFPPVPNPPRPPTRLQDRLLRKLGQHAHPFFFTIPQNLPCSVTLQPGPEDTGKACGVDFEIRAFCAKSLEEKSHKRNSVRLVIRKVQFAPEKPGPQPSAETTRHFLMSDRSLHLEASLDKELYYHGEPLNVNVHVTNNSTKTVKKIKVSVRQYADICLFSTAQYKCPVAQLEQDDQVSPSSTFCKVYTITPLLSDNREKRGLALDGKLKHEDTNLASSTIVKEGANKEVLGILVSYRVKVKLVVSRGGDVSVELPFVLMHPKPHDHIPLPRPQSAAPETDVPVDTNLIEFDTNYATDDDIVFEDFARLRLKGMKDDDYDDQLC

[3] = system: paclitaxel induced peripheral neuropathy; test: Reversal of allodynia induced by paclitaxel in mice (s.c. or p.o., von Frey frequency method); type: in vivo, c57bl/6 mice; details: Mus musculus; for inhibition in vivo at 1 mg/kg: sc, 0.5 h, 1 mg/kg s.c., tested 30 min after dosing, read-out: Screen @ 1 mg/kg sc (% MPE)
Outline: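 Neuropathy was induced in mice by paclitaxel (6 mg/kg i.p., days 1, 3, 5, 7) or oxaliplatin (4 mg/kg i.p., days 1-5), with re-testing about 14 days later. Compounds were given s.c. (tested at 30 min) or p.o. (tested at 60 min; paclitaxel only). A 0.4 g von Frey filament was applied ten times per paw, and % non-response was converted to % MPE.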

[4] = biological target: human sphingosine-1-phosphate receptor 2 (S1P2) (Homo sapiens (Human), UniProt O95136); test: Inositol monophosphate production (IP-one TB kit), S1P2 CHO-K1 cells; type: cell-based; details: for Emax: CHO-K1, read-out: hS1P2 IP-one SPAN; for hS1P2 IP-one pEC50: inositol monophosphate accumulation
Method: (§1) Stable clonal Chinese hamster ovary K1 (CHO-K1) cells co-expressing EA-β-arrestin2 and the human sphingosine-1-phosphate receptor 2 (NM_004230.3, S1P2), human sphingosine-1-phosphate receptor 3 (NM_005226, S1P3) and sphingosine-1-phosphate receptor 5 (NM_001166215.1, S1P5) with a C-terminal Prolink™ tag were purchased from DiscoverX corporation (S1P2: Cat #93-0256C2, S1P3: Cat #93-0217C2, S1P5: Cat #93-0583C2).
(§2) Cell lines were cultured in AssayComplete™ Media 6 (DiscoverX Corporation, Cat #: 920018GF2) at 37° C. and 5% CO2 in a humidified CO2 and temperature-controlled incubator. To begin assay plating, cells were washed with dulbecco's phosphate buffered saline (CellGro, Cat #: 21-031-CV) and lifted from the culturing flask by incubation (37° C., 5 min) with CellStripper (Cellgro, Cat #: 25-056-CI). […] Plated cells were incubated overnight at 37° C. and 5% CO2 in a humidified CO2 and temperature-controlled incubator.
S1P2 Agonist-promoted G-protein responses were determined by measuring changes in intracellular inositol monophosphate using the IP-one TB kit (CisBio, Cat #: 62IPAPEJ) based on time-resolved fluorescence resonance energy transfer (TR-FRET) technology. AssayComplete™ Cell Plating 2 Reagent was removed and replaced with 1× IP-one stimulation buffer (as per manufacturer's instructions) along with test or control compounds at the desired concentrations. Following a 60-minute incubation at 37° C. and 5% CO2 in a humidified CO2 and temperature-controlled incubator, the components of the IP-one TB kit were added as per the manufacturer's instructions. After an hour incubation at room temperature, plates were analyzed by a BMG PheraStar microplate reader.
(§3) The tables below include the efficacy of the compound as compared to a positive control, referred to as “SPAN”. These values are normalized to fingolimod, a known agonist of the sphingosine-1-phosphate 3 and 5 receptor or CYM5520, a known agonist of the sphingosine-1-phosphate 2 receptor. The tables also include potency values (pEC50) for modulating discrete receptor-mediated activities (inhibition of cAMP production or inositol monophosphate accumulation).

[5] = biological target: human sphingosine-1-phosphate receptor 3 (S1P3) (Homo sapiens (Human), UniProt Q99500); test: Inhibition of cAMP production (HTRF), S1P3 CHO-K1 cells; type: cell-based; details: for Emax: CHO-K1, read-out: hS1P3 cAMP SPAN; for hS1P3 cAMP pEC50: inhibition of cAMP production
Method: as §1, §2
(§4) S1P3 and S1P5 Agonist-promoted G-protein responses were determined by measuring changes in intracellular cAMP using the HTRF® cAMP HiRange kit (CisBio, Cat #: 62AM6PEJ) based on time-resolved fluorescence resonance energy transfer (TR-FRET) technology. […] Following a 30-minute room temperature incubation the components of the cAMP HiRange kit were added as per the manufacturer's instructions. After an hour incubation at room temperature, plates were analyzed by a BMG PheraStar microplate reader.
as §3

[6] = biological target: sphingosine-1-phosphate receptor 5 (S1P5) (Homo sapiens (Human), UniProt Q9H228); test: Inhibition of cAMP production (HTRF), S1P5 CHO-K1 cells; type: cell-based; details: for Emax: CHO-K1, read-out: hS1P5 cAMP SPAN; for hS1P5 cAMP pEC50: inhibition of cAMP production
Method: as §1, §2, §4, §3

[7] = efficacy (SPAN) normalized to fingolimod
[8] = efficacy normalized to fingolimod

human sphingosine-1-phosphate receptor 3 (S1P3), sequence (Q99500 whole entry): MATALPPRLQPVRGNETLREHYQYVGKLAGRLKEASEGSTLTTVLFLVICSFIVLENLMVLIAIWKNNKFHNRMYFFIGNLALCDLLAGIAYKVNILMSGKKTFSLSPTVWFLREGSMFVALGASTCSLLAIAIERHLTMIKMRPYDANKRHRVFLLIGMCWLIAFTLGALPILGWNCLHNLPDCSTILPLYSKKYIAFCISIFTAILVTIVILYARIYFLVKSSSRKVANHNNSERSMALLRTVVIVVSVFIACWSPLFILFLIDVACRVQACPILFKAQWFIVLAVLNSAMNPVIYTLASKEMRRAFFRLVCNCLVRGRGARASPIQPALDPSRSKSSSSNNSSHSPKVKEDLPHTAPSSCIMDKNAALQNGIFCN
sphingosine-1-phosphate receptor 5 (S1P5), sequence (Q9H228 whole entry): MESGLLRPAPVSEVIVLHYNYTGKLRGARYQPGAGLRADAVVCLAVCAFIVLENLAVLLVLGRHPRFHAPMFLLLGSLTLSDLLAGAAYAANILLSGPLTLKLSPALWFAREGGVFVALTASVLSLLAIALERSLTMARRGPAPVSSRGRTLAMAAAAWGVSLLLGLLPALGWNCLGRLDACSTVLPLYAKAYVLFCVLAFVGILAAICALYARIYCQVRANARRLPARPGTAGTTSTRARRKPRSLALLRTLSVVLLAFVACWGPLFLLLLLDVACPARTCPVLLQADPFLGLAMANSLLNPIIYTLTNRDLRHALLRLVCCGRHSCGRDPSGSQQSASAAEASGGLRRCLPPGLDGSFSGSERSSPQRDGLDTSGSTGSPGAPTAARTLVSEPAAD
human sphingosine-1-phosphate receptor 2 (S1P2), sequence (O95136 whole entry): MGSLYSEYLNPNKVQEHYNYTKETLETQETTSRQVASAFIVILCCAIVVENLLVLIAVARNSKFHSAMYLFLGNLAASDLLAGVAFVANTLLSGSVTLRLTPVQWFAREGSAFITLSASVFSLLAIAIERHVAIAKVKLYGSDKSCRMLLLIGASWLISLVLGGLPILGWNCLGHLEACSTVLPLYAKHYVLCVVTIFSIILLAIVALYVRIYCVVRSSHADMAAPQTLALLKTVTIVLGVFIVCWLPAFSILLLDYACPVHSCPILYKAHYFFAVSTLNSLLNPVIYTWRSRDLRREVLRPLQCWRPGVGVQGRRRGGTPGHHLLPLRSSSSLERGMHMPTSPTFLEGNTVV

Row | SMILES | Emax [1, 7] | hS1P1 cAMP pEC50 [1] | Emax [2, 7] | hS1P1 B-arrestin2 pEC50 [2] | inhibition in vivo at 1 mg/kg [3] | Emax ([4]; efficacy normalized to CYM5520) | hS1P2 IP-one pEC50 [4] | Emax [5, 8] | hS1P3 cAMP pEC50 [5] | Emax [6, 8] | hS1P5 cAMP pEC50 [6] | inhibition in vivo at 3 mg/kg ([3]; po, 1 h, 3 mg/kg p.o., tested 60 min after dosing, read-out: Screen @ 3 mg/kg po (% MPE)) | hS1P1 cAMP SPAN [1, 7] | hS1P1 B-arrestin2 SPAN [2, 7] | hS1P2 IP-one SPAN ([4]; efficacy normalized to CYM5520) | hS1P3 cAMP SPAN [5, 8] | hS1P5 cAMP SPAN [6, 8]
1 | CCC1(CC)CC(=O)c2cc(-c3nc(-c4ccc(C(=O)NC)cc4)no3)ccc2O1 [Compound 185, 4-(5-(2,2-diethyl-4-oxochroman-6-yl)-1,2,4-oxadiazol-3-yl)-N-methylbenzamide] | > 75% | >6.5 | > 75% | >5 | > 50% | < 50% | <5.0 | < 50% | <5.0 | > 50% | <5.0 | – | – | – | – | – | –
2 | COc1ccccc1-c1nnc(-c2ccc3c(c2)oc(=O)n3C)o1 [Compound 406, 6-[5-(2-methoxyphenyl)-1,3,4-oxadiazol-2-yl]-3-methyl-2,3-dihydro-1,3-benzoxazol-2-one] | – | >6.5 | – | >5 | – | – | <5.0 | – | <5.0 | – | <5.0 | – | – | – | – | – | –
3 | CCC1(CC)CC(=O)c2cc(-c3nc(-c4ccccc4Cl)no3)ccc2O1 [Compound 221, 6-(3-(2-chlorophenyl)-1,2,4-oxadiazol-5-yl)-2,2-diethylchroman-4-one] | – | >6.5 | – | >5 | < 50% | – | <5.0 | – | >5.0 | – | >5.0 | – | – | – | – | – | –
4 | CCC1(CC)CC(=O)c2cc(-c3nc(-c4ccc(NS(C)(=O)=O)cc4)no3)ccc2O1 [Compound 262, N-(4-(5-(2,2-diethyl-4-oxochroman-6-yl)-1,2,4-oxadiazol-3-yl)phenyl)methanesulfonamide] | > 75% | >6.5 | > 75% | >5 | > 50% | > 50% | <5.0 | < 50% | <5.0 | < 50% | <5.0 | > 50% | – | – | – | – | –
5 | COc1ccccc1-c1coc(-c2ccc3c(c2)nnn3C(C)C)n1 [Compound 277, 5-[4-(2-methoxyphenyl)-1,3-oxazol-2-yl]-1-(propan-2-yl)-1H-1,2,3-benzotriazole] | > 75% | >6.5 | > 75% | >5 | > 50% | > 50% | <5.0 | < 50% | <5.0 | < 50% | <5.0 | – | – | – | – | – | –
6 | Cc1ccncc1-c1noc(-c2ccc3c(c2)nnn3C2CCC2)n1 [Compound 417, 1-cyclobutyl-5-[3-(4-methylpyridin-3-yl)-1,2,4-oxadiazol-5-yl]-1H-1,2,3-benzotriazole] | – | >6.5 | – | >5 | – | – | >5.0 | – | <5.0 | – | <5.0 | – | – | – | – | – | –
7 | COc1cnccc1-c1nc(-c2ccc3c(ccn3C(C)C)c2)no1 [Compound 391, 3-(1-isopropyl-1H-indol-5-yl)-5-(3-methoxypyridin-4-yl)-1,2,4-oxadiazole] | – | >6.5 | – | >5 | – | – | >5.0 | – | >5.0 | – | >5.0 | – | – | – | – | – | –
8 | COc1ccccc1-c1nc(-c2ccc3c(ccn3C(C)C)c2)no1 [Compound 398, 3-(1-isopropyl-1H-indol-5-yl)-5-(2-methoxyphenyl)-1,2,4-oxadiazole] | – | >6.5 | – | >5 | – | – | <5.0 | – | <5.0 | – | <5.0 | – | – | – | – | – | –
9 | CCC1(CC)CC(=O)c2cc(-c3nc(-c4ccc5[nH]ncc5c4)no3)ccc2O1 [Compound 152, 6-(3-(1H-indazol-5-yl)-1,2,4-oxadiazol-5-yl)-2,2-diethylchroman-4-one] | – | <6.5 | – | >5 | – | – | <5.0 | – | <5.0 | – | <5.0 | – | >75 | >75 | <50 | <50 | <50
10 | C=CCNc1ccc(-c2nc(-c3ccc4[nH]ncc4c3)no2)cc1C#N [Compound 141, 5-(3-(1H-indazol-5-yl)-1,2,4-oxadiazol-5-yl)-2-(allylamino)benzonitrile] | > 75% | >6.5 | > 75% | >5 | – | < 50% | <5.0 | > 50% | >5.0 | > 50% | >5.0 | – | – | – | – | – | –
11 | CC(C)n1nnc2cc(-c3nc4c(o3)Cc3ccccc3-4)ccc21 [Compound 219, 5-{8H-indeno[1,2-d][1,3]oxazol-2-yl}-1-(propan-2-yl)-1H-1,2,3-benzotriazole] | – | >6.5 | – | >5 | – | – | >5.0 | – | <5.0 | – | <5.0 | – | – | – | – | – | –
